# Results: patent US20110311643A1, “SUPPLEMENTED MATRICES FOR THE REPAIR OF BONE FRACTURES” (Kuros Biosurgery AG, priority 2005, published 2011)
# Marks after values point to notes of the source that are not given here.
# Experiments:
# [1] = Stability of PTH / TGPTH in buffer (spiked samples, direct ELISA); format: physicochemical; details: 0.5 μg/mL; 37° C.; distilled water, phosphate buffer saline, tris-buffer saline
# Experimental: For the first release assay a fibrin matrix of 50 μl with 0.1 mg PTH or TGPTH per ml fibrin matrix was incubated at 37° C. in 10 ml buffer. Therefore, the concentration of PTH or TGPTH in the buffer in case of a total release would be 0.5 μg PTH or TGPTH/mL fibrin matrix. In order to compare the stability of PTH or TGPTH during the assay, samples of PTH or TGPTH were diluted directly in the buffer to a concentration of 0.5 μg PTH or TGPTH/mL fibrin matrix. Different buffers were tested: distilled water, phosphate buffer saline, tris-buffer saline.
# Aliquots were taken at days 0, 1, 2, 4 and 6 and analysed by direct ELISA. […] Therefore, no conclusion could be made on the release data. The PTH stability was certainly affected by its low concentration and the buffers that were not optimal.
# The release experiment was repeated by using a stabilizing buffer containing 50 mM mannitol in a 10 mM sodium acetate buffer. In addition, the buffer was exchanged every 2 days in order to prevent any degradation of peptide. […] The concentration of PTH or TGPTH in the buffer in case of a total release would be 100 μg/mL fibrin matrix (200 times more than before). […] Samples were collected every 2 to 4 days (with a change of buffer) during 2 weeks and analysed by direct ELISA. […]
# [2] = system: acute, open tibial shaft fractures; assay: Phase II clinical study of I-040202 in tibial shaft fractures; format: in vivo, patients; details: Intent-to-Treat
# From the text: This was a Phase II, prospective, randomized, controlled, open-label (dose-blinded), parallel-group, multi-center clinical study of the efficacy and safety of TGplPTH1-34 in a matrix made of fibrin (I-040202) in patients with acute, open tibial shaft fractures. The supplemented matrix was applied directly to the fracture site in the form of a paste. A total of 200 patients were randomized and treated in 31 centers across Europe.
# The study consisted of four study groups: one control group using standard of care (SoC) which included intramedullary nailing and soft tissue management, and three treatment groups using 4 mL of I-040202 containing TGplPTH1-34 at concentrations of 0.133, 0.4 and 1.0 mg/mL fibrin matrix respectively (different concentrations of TGplPTH1-34), as an adjunct to SoC. Patients followed up clinically and radiologically on a monthly basis until 6 months post-surgery, and thereafter at 9 and 12 months post-surgery.
# The primary endpoint was the proportion of patients who had fracture healing at 6 months as assessed by the investigator using radiographic and clinical parameters. Three doses of I-040202 in combination with SoC were compared against SoC alone.
# [3] = system: 1 cm segmental tibial defect; assay: Sheep tibial defect model, supplemented fibrin matrix with TCP granules; format: in vivo
# Experimental: The fibrin matrix was formed starting from the TISSEEL® Kit (Baxter AG, CH-8604 Volketswil/ZH) giving 4 mL fibrin matrix. TISSEEL® is produced from human derived pooled plasma and the content of active ingredients may vary from lot to lot within predefined ranges.
# Matrix: A supplemented fibrin matrix containing granular material and PTH fusion peptide (TGplPTH1-34) was prepared using 3 separate syringes, a two-way syringe containing fibrin precursor solution and PTH fusion peptide (syringes 1 and 2) and two one-way syringes, one containing water and the other containing granules (syringes 3 and 4).
# First the hydroxyapatite/calcium phosphate granules in syringe 4 were wetted by injection of the water of syringe 3. The fibrin precursor solution of syringe 1 (fibrinogen and TGplPTH1-34 suspended in a solution with aprotinin, a serine proteinase inhibitor which helps reduce fibrolysis to retain the integrity of the fibrin matrix) was mixed with the fibrin precursor solution of syringe 2 (thrombin in a calcium chloride solution). TGplPTH1-34 was formulated into the fibrinogen component to give a final concentration in the matrix varying from of 0.1 mg/mL to 10 mg/mL of the fibrin matrix and during the gelation process TGplPTH1-34 became crosslinked to the matrix. Fibrin precursor solutions also contained other components of fibrin matrix, such as plasma fibronectin, Factor XIIIa, plasminogen, and human albumin. When the precursor solutions are in equal volumes, a clotting process occurs to form fibrin. The clotting process takes place over several minutes which allows for the simultaneous injection of the mixed solutions into syringe 4, which contain the wetted granules. The matrix can then be introduced at the site of need where it solidifies. Enough matrix was placed in the defect to completely fill it.
# Animals: A total of 42 Swiss Alpine, female sheep ranging between 44-83 kg (mean: 62.8 kg) and 2.25-4.75 years of age were chosen as experimental animals. Seven groups were formed with autografts as positive and fibrin matrix plus TCP granules as negative controls. The other groups consisted of the same fibrin matrix and TCP granules, but differed only in dosage of the TGplPTH1-34. Groups were followed for 12 weeks, when animals were sacrificed at a university-owned slaughter house. All animal experiments were conducted according to the Swiss laws of animal protection and welfare and were authorized by the local Ethical Committee and Veterinary Authorities.
# Surgery: A medial approach to the tibia shaft was performed directly above the bone and extending from the distal aspect of the stifle to the hock joint, the medial fascia of the tibia was incised and the medial aspect of the tibia exposed without disturbing the periosteum. A 11 hole, 3.5 mm broad dynamic compression plate (Synthes) was contoured to the shaft with the distal end of the plate ending above the tibiotarsal joint. The plate was fixed to the bone using eleven 3.5 mm screws in a neutral position and distributing five screw holes distally and six proximally to the planned defect. The screws and plate were removed. Thereafter, the defect was marked on the bone with a scalpel blade using a gage ensuring a standardized 1 cm defect between the 5th and 6th screw hole. With an oscillating saw, the defect was cut under constant irrigation and preservation of soft tissues. The 1 cm segment including the circumferential periosteum was carefully removed and local bleeding out of the bone marrow or local soft tissue was stopped applying pressure with a gauze. The plate was repositioned and all screws reinserted before the matrix was filled into the bone gap as described above. Care was taken to distribute the matrix equally underneath the plate, on the lateral and as well as the transcortex.
# For the positive autograft control group, autogenic bone was harvested through a local incision directly above the iliac crest. […]
# [4] = 1 mg TGplPTH1-34/mL fibrin matrix
time stable in buffer [1] [days],Compound,% healed at 6 months (Clinician's assessment) ([2]; 0.133 mg TGplPTH1-34/ml fibrin matrix + SoC),"% healed at 6 months (Clinician's assessment) ([2]; 0.4 mg TGplPTH1-34/ml fibrin matrix + SoC, p = 0.084 vs SoC alone)",% healed at 6 months (Clinician's assessment) ([2]; 1.0 mg TGplPTH1-34/ml fibrin matrix + SoC),"amount of endosteal bone formation (histomorphometry) [3, 4]","rate of granule resorption (histomorphometry) [3, 4]","animals showing bridging ([3]; 1 mg TGplPTH1-34/mL fibrin matrix, 8 weeks)","animals healed showing stable, clinical unions ([3]; 1 mg TGplPTH1-34/mL fibrin matrix, after 12 weeks) [animals]","animals showing bending of the plate ([3]; 1 mg TGplPTH1-34/mL fibrin matrix, within the first four weeks)",periosteal healing compared to negative control material ([3]; 0.4 and 1 mg TGplPTH1-34/mL fibrin matrix),"healing compared to autograft ([3]; 0.4 and 1 mg TGplPTH1-34/mL fibrin matrix, 12 weeks)","animals with unstable fracture site ([3]; 12 weeks, plate removed, movement/torsion of the limb, TGplPTH1-34 at 1 mg/mL fibrin matrix, FIG. 4)","periosteal healing response (radiographs) ([3]; doses between 0.4 and 2 mg TGplPTH1-34/mL fibrin matrix, every time point)",rates of endosteal bone formation and granule resorption ([3]; higher doses of TGplPTH1-34),"stability of the defect at the endpoint ([3]; higher doses than about 1 mg TGplPTH1-34/mL fibrin matrix, 12 weeks)"
≤ 2,CC[C@H](C)[C@H](NC(=O)[C@H](CCC(=O)O)NC(=O)[C@H](CO)NC(=O)[C@@H](NC(=O)[C@@H](N)CO)C(C)C)C(=O)N[C@@H](CCC(N)=O)C(=O)N[C@@H](CC(C)C)C(=O)N[C@@H](CCSC)C(=O)N[C@@H](Cc1cnc[nH]1)C(=O)N[C@@H](CC(N)=O)C(=O)N[C@@H](CC(C)C)C(=O)NCC(=O)N[C@@H](CCCCN)C(=O)N[C@@H](Cc1cnc[nH]1)C(=O)N[C@@H](CC(C)C)C(=O)N[C@@H](CC(N)=O)C(=O)N[C@@H](CO)C(=O)N[C@@H](CCSC)C(=O)N[C@@H](CCC(=O)O)C(=O)N[C@@H](CCCN=C(N)N)C(=O)N[C@H](C(=O)N[C@@H](CCC(=O)O)C(=O)N[C@@H](Cc1c[nH]c2ccccc12)C(=O)N[C@@H](CC(C)C)C(=O)N[C@@H](CCCN=C(N)N)C(=O)N[C@@H](CCCCN)C(=O)N[C@@H](CCCCN)C(=O)N[C@@H](CC(C)C)C(=O)N[C@@H](CCC(N)=O)C(=O)N[C@@H](CC(=O)O)C(=O)N[C@H](C(=O)N[C@@H](Cc1cnc[nH]1)C(=O)N[C@@H](CC(N)=O)C(=O)N[C@@H](Cc1ccccc1)C(=O)O)C(C)C)C(C)C [PTH1-34],–,–,–,–,–,–,–,–,–,–,–,–,–,–
–,"NQEQVSPLYKNRSVSEIQLMHNLGKHLNSMERVEWLRKKLQDVHNF (Modified Parathyroid hormone (PHT), comprisig amino acids 1-34 of native PTH as well as a transglutaminase substrate domain and a plasmin-degradable sequence) [TGplPTH1-34]",75.6% (34 of 45),80.4%* (37 of 46),69.2% (27 of 39),higher than with the other concentrations of TGplPTH1-34,highest resorption rate,one,5,one,statistically stronger periosteal healing,equivalent to autograft,one,much stronger periosteal healing response,lower rates of both endosteal bone formation and granule resorption,much lower stability
